Experiment [1] concerns G30 neurospheres (glioma stem-like cells, luciferase-transduced). The experiment can be described thus: G30 cytotoxicity assay. It is filed as cell-based. Particulars: read-out: IC50 in G30 GSCs, 72 h treatment, CellTiter-Glo. (Cellular ATP, detected with luciferase, serves as a proxy for viable cell number.)
Experiment [2] relates to G9 neurospheres (glioma stem-like cells). The experiment is described as follows: G9 cytotoxicity assay. It is filed as cell-based.

One may read the IC50 as the midpoint of a concentration-inhibition curve. For `N.N.[Cl][Pt][Cl]` [cisplatin], the 50% inhibitory concentration (IC50) in experiment [1] is 2 µM; in experiment [2] (read-out: IC50 against G9 cells, 80 h treatment, CellTiter-Glo), 4 µM.

On to `CCCCNC(=O)[O][Pt]([NH2])([NH2])([Cl])([Cl])[O]C(=O)CCC(=O)O` [prodrug 4, cis,cis,trans-[Pt(NH3)2Cl2(O2CCH2CH2COOH)(n-butyl Carba-mate)]], for which the “IC50 against G9 cells” value in experiment [2] (80 h treatment, CellTiter-Glo) was “not active”.

The record behind these values is article PMC7992430 (Journal of medicinal chemistry, 2020).
